According to ChEMBL document CHEMBL1153550, “In vitro study of Candida tropicalis isolates exhibiting paradoxical growth in the presence of high concentrations of caspofungin” (2007):
In brackets after ≈: the same amount, converted by molar mass. Activity calls are given as the source filed them. No cut-off for these calls is given here.

How the values were obtained:
Candida tropicalis [1] = assay: Antifungal activity against > 2 x 10^7 CFU/ml Candida tropicalis isolate 11 in RPMI 1640 medium assessed as partial growth after 24 hrs by broth microdilution method; assay type: functional, organism-based
Candida tropicalis [2] = assay: Antifungal activity against > 2 x 10^7 CFU/ml Candida tropicalis isolate 2 in antibiotic medium 3 assessed as partial growth after 24 hrs by broth microdilution method; assay type: functional, organism-based
Candida tropicalis [3] = assay: Antifungal activity against 10^5 CFU/ml Candida tropicalis ATCC 750 in RPMI 1640 medium at 0.4 to 12.5 ug/ml treated for 48 hrs followed by incubation in drug free medium for 48 hrs by broth microdilution method; assay type: functional, organism-based
Candida tropicalis [4] = assay: Antifungal activity against > 2 x 10^7 CFU/ml Candida tropicalis isolate 5 in antibiotic medium 3 assessed as partial growth after 24 hrs by broth microdilution method; assay type: functional, organism-based
Candida tropicalis [5] = assay: Antifungal activity against 10^5 CFU/ml Candida tropicalis isolate 5 in RPMI 1640 medium at 12.5 ug/ml treated for 24 hrs followed by incubation in drug free medium for 48 hrs by broth microdilution method; assay type: functional, organism-based
Candida tropicalis [6] = assay: Antifungal activity against 10^5 CFU/ml Candida tropicalis isolate 2 in RPMI 1640 medium at 12.5 ug/ml treated for 48 hrs followed by incubation in drug free medium for 48 hrs by broth microdilution method; assay type: functional, organism-based
Candida tropicalis [7] = assay: Antifungal activity against Candida tropicalis ATCC 750 in RPMI 1640 medium assessed as paradoxical growth at 12.5 ug/ml after 48 hrs by broth microdilution method; assay type: functional, organism-based
Candida tropicalis [8] = assay: Antifungal activity against > 2 x 10^7 CFU/ml Candida tropicalis isolate 15 in RPMI 1640 medium assessed as partial growth after 24 hrs by broth microdilution method; assay type: functional, organism-based
Candida tropicalis [9] = assay: Antifungal activity against 2 x 10^7 CFU/ml Candida tropicalis isolate 5 in antibiotic medium 3 after 24 hrs by broth microdilution method; assay type: functional; conditions: isolate 5, 24 h
Candida tropicalis [10] = assay: Antifungal activity against 10^5 CFU/ml Candida tropicalis isolate 5 in RPMI 1640 medium at =< 0.09 ug/ml after 24 hrs followed by incubation in drug free medium for 48 hrs by broth microdilution method; assay type: functional, organism-based
Candida tropicalis [11] = assay: Antifungal activity against 10^5 CFU/ml Candida tropicalis isolate 4 in RPMI 1640 medium at 0.4 to 12.5 ug/ml treated for 48 hrs followed by incubation in drug free medium for 48 hrs by broth microdilution method; assay type: functional, organism-based
Candida tropicalis [12] = assay: Antifungal activity against > 2 x 10^7 CFU/ml Candida tropicalis isolate 14 in antibiotic medium 3 assessed as partial growth after 24 hrs by broth microdilution method; assay type: functional, organism-based
Candida tropicalis [13] = assay: Antifungal activity against 10^5 CFU/ml Candida tropicalis isolate 3 in RPMI 1640 medium at 12.5 ug/ml treated for 24 hrs followed by incubation in drug free medium for 48 hrs by broth microdilution method; assay type: functional, organism-based
Candida tropicalis [14] = assay: Antifungal activity against 2 x 10^7 CFU/ml Candida tropicalis isolate 14 in antibiotic medium 3 after 24 hrs by broth microdilution method; assay type: functional; conditions: isolate 14, 24 h
Candida tropicalis [15] = assay: Antifungal activity against 10^5 CFU/ml Candida tropicalis isolate 4 in RPMI 1640 medium at 12.5 ug/ml treated for 48 hrs followed by incubation in drug free medium for 48 hrs by broth microdilution method; assay type: functional, organism-based
Candida tropicalis [16] = assay: Antifungal activity against Candida tropicalis isolate 8 in RPMI 1640 medium assessed as paradoxical growth at 12.5 ug/ml after 24 hrs by broth microdilution method; assay type: functional, organism-based
Candida tropicalis [17] = assay: Antifungal activity against 10^5 CFU/ml Candida tropicalis isolate 11 in RPMI 1640 medium at 12.5 ug/ml treated for 48 hrs followed by incubation in drug free medium for 48 hrs by broth microdilution method; assay type: functional, organism-based
Candida tropicalis [18] = assay: Antifungal activity against > 2 x 10^7 CFU/ml Candida tropicalis isolate 1 in RPMI 1640 medium assessed as partial growth after 24 hrs by broth microdilution method; assay type: functional, organism-based
Candida tropicalis [19] = assay: Antifungal activity against Candida tropicalis isolate 4 in RPMI 1640 medium assessed as paradoxical growth at 12.5 ug/ml after 48 hrs by broth microdilution method; assay type: functional, organism-based
Candida tropicalis [20] = assay: Antifungal activity against Candida tropicalis isolate 6 in RPMI 1640 medium assessed as paradoxical growth at 12.5 ug/ml after 24 hrs by broth microdilution method; assay type: functional, organism-based
Candida tropicalis [21] = assay: Antifungal activity against 10^5 CFU/ml Candida tropicalis isolate 6 in RPMI 1640 medium at =< 0.09 ug/ml after 24 hrs by followed by incubation in drug free medium for 48 hrs broth microdilution method; assay type: functional, organism-based
Candida tropicalis [22] = assay: Antifungal activity against > 2 x 10^7 CFU/ml Candida tropicalis isolate 12 in antibiotic medium 3 assessed as partial growth after 24 hrs by broth microdilution method; assay type: functional, organism-based
Candida tropicalis [23] = assay: Antifungal activity against Candida tropicalis isolate 8 in RPMI 1640 medium assessed as paradoxical growth at 12.5 ug/ml after 48 hrs by broth microdilution method; assay type: functional, organism-based
Candida tropicalis [24] = assay: Antifungal activity against 10^5 CFU/ml Candida tropicalis clinical isolate in RPMI 1640 medium treated for 24 hrs followed by incubation in drug free medium for 48 hrs by broth microdilution method; assay type: functional, organism-based
Candida tropicalis [25] = assay: Antifungal activity against 10^5 CFU/ml Candida tropicalis isolate 14 in RPMI 1640 medium at 12.5 ug/ml treated for 24 hrs followed by incubation in drug free medium for 48 hrs by broth microdilution method; assay type: functional, organism-based
Candida tropicalis [26] = assay: Antifungal activity against > 2 x 10^7 CFU/ml Candida tropicalis ATCC 750 in antibiotic medium 3 assessed as partial growth after 24 hrs by broth microdilution method; assay type: functional, organism-based
Candida tropicalis [27] = assay: Antifungal activity against Candida tropicalis isolate 7 in RPMI 1640 medium assessed as paradoxical growth at 6.25 ug/ml after 48 hrs by broth microdilution method; assay type: functional, organism-based
Candida tropicalis [28] = assay: Antifungal activity against Candida tropicalis isolate 7 in RPMI 1640 medium assessed as paradoxical growth at 6.25 ug/ml after 24 hrs by broth microdilution method; assay type: functional, organism-based
Candida tropicalis [29] = assay: Antifungal activity against > 2 x 10^7 CFU/ml Candida tropicalis isolate 6 in antibiotic medium 3 assessed as paradoxical growth after 24 hrs by broth microdilution method; assay type: functional, organism-based
Candida tropicalis [30] = assay: Antifungal activity against 10^5 CFU/ml Candida tropicalis isolate 2 in RPMI 1640 medium at 12.5 ug/ml treated for 24 hrs followed by incubation in drug free medium for 48 hrs by broth microdilution method; assay type: functional, organism-based
Candida tropicalis [31] = assay: Antifungal activity against Candida tropicalis isolate 15 in RPMI 1640 medium assessed as paradoxical growth at 12.5 ug/ml after 24 hrs by broth microdilution method; assay type: functional, organism-based
Candida tropicalis [32] = assay: Antifungal activity against 10^5 CFU/ml Candida tropicalis isolate 4 in RPMI 1640 medium at =< 0.09 ug/ml after 24 hrs followed by incubation in drug free medium for 48 hrs by broth microdilution method; assay type: functional, organism-based
Candida tropicalis [33] = assay: Antifungal activity Candida tropicalis ATCC 750 in RPMI 1640 medium at 12.5 ug/ml after 24 hrs by time-kill assay; assay type: functional, organism-based
Candida tropicalis [34] = assay: Antifungal activity against 2 x 10^7 CFU/ml Candida tropicalis isolate 4 in RPMI 1640 medium after 24 hrs by broth microdilution method; assay type: functional; conditions: isolate 4, 24 h
Candida tropicalis [35] = assay: Antifungal activity Candida tropicalis ATCC 750 in RPMI 1640 medium at 0.19 to 6.25 ug/ml after 24 hrs by time-kill assay; assay type: functional, organism-based

CC[C@H](C)C[C@H](C)CCCCCCCCC(=O)N[C@H]1C[C@@H](O)[C@@H](NCCN)NC(=O)[C@@H]2[C@@H](O)CCN2C(=O)[C@H]([C@H](O)CCN)NC(=O)[C@H]([C@H](O)[C@@H](O)c2ccc(O)cc2)NC(=O)[C@@H]2C[C@@H](O)CN2C(=O)[C@H]([C@@H](C)O)NC1=O [CASPOFUNGIN] was tested, and the Activity (Candida tropicalis [1]) was “inactive”, the Activity (Candida tropicalis [2]) was “inactive” and the Activity (Candida tropicalis [3]) was “inactive”. The Activity (Candida tropicalis [4]) was “inactive”, the Activity (Candida tropicalis [5]) was “inactive” and the Activity (Candida tropicalis [6]) was “inactive”. The Activity (Candida tropicalis [7]) was “Active”, the Activity (Candida tropicalis [8]) was “inactive” and the MIC (Candida tropicalis [9]) was 0.024 µg/mL (≈ 0.022 µM). The Activity (Candida tropicalis [10]) was “Active”, the Activity (Candida tropicalis [11]) was “inactive” and the Activity (Candida tropicalis [12]) was “inactive”. For the same compound, the Activity (Candida tropicalis [13]) was “inactive”, the MIC (Candida tropicalis [14]) was 0.024 µg/mL (≈ 0.022 µM) and the Activity (Candida tropicalis [15]) was “inactive”. For the same compound, the Activity (Candida tropicalis [16]) was “inactive”, the Activity (Candida tropicalis [17]) was “inactive” and the Activity (Candida tropicalis [18]) was “inactive”. For the same compound, the Activity (Candida tropicalis [19]) was “inactive”, the Activity (Candida tropicalis [20]) was “inactive” and the Activity (Candida tropicalis [21]) was “Active”. For the same compound, the Activity (Candida tropicalis [22]) was “inactive”, the Activity (Candida tropicalis [23]) was “inactive” and the Activity (Candida tropicalis [24]) was “Active”. For the same compound, the Activity (Candida tropicalis [25]) was “inactive”, the Activity (Candida tropicalis [26]) was “inactive” and the Activity (Candida tropicalis [27]) was “Active”. For the same compound, the Activity (Candida tropicalis [28]) was “Active”, the Activity (Candida tropicalis [29]) was “inactive” and the Activity (Candida tropicalis [30]) was “inactive”. The Activity (Candida tropicalis [31]) was “inactive”, the Activity (Candida tropicalis [32]) was “Active” and the Activity (Candida tropicalis [33]) was “inactive”. The MIC (Candida tropicalis [34]) was 0.024 µg/mL (≈ 0.022 µM) and the Activity (Candida tropicalis [35]) was “Active”.
